Laboratory results taken from patent US11390603B2, “Crystalline forms of a biphenyl compound” (THERAVANCE BIOPHARMA R&D IP, LLC, priority 2005, dated 2022).

Legend:
[1] = DMS trace
Protocol: A dynamic moisture sorption (DMS) assessment (also known as a moisture sorption-desorption profile) was performed using a VTI atmospheric microbalance, SGA-100 system (VTI Corp., Hialeah, Fla. 33016). A sample size of approximately 10 mg was used and the humidity was set at the ambient value at the start of the analysis. A typical DMS analysis consisted of three scans: ambient to 2% relative humidity (RH), 2% RH to 90% RH, 90% RH to 5% RH at a scan rate of 5% RH/step. The mass was measured every two minutes and the RH was changed to the next value (+/−5% RH) when the mass of the sample was stable to within 0.01% for 5 consecutive points.

[2] = DSC trace, 10° C./min
Protocol: Differential scanning calorimetry (DSC) was performed using a TA Instruments Model Q-10 module with a Thermal Analyst controller. Data were collected and analyzed using TA Instruments Thermal Solutions software. A sample of about 1-4 mg was accurately weighed into an aluminum pan with lid. The sample was evaluated using a linear heating ramp of 10° C./min from ambient temperature to approximately 300° C. The DSC cell was purged with dry nitrogen during use.

[3] = pH 5
Protocol: A solution was prepared with 0.5 mg/mL freebase equivalents (using a crystalline diphosphate salt prepared as described in Example 3) in 10 mM citrate buffered normal saline, pH 5. […] Less than 0.5% degradation was observed after storage for one month at 40° C./75% RH.

[4] = six weeks at −20° C. (closed) and 40° C./75% RH (open and closed)
Protocol: At specific intervals, the entire contents of a representative vial was analyzed by the following HPLC method: […]

SMILES | sorption/desorption profile and hygroscopicity [1] | weight gain when exposed to 2-90% RH [1] [%] | weight gain in the humidity range of 40-75% RH [1] [%] | temperature below which no thermal decomposition occurs [2] [°C] | degradation of solution after storage ([3]; 0.5 mg/mL freebase equivalents in 10 mM citrate buffered normal saline, one month at 40° C./75% RH) | solubility of the crystalline salt ([3]; 10 mM citrate buffered normal saline) | solid state stability: change in chemical purity [4]
CN(CCN1CCC(OC(=O)Nc2ccccc2-c2ccccc2)CC1)C(=O)c1ccc(CN2CCC(C(N)=O)CC2)cc1.O=S(=O)(O)O [Example 5, Crystalline Monosulfate Salt of Biphenyl-2-ylcarbamic Acid 1-(2-{[4-(4-Carbamoylpiperidin-1-ylmethyl)benzoyl]methylamino}ethyl)piperidin-4-yl Ester] | reversible sorption/desorption profile with low hygroscopicity | 10 | 1.8 | – | – | – | –
CN(CCN1CCC(OC(=O)Nc2ccccc2-c2ccccc2)CC1)C(=O)c1ccc(CN2CCC(C(N)=O)CC2)cc1 [Example 11, Crystalline Freebase Biphenyl-2-ylcarbamic Acid 1-(2-{[4-(4-Carbamoylpiperidin-1-ylmethyl)benzoyl]methylamino}ethyl)piperidin-4-yl Ester (Form II)] | reversible sorption/desorption profile with low hygroscopicity | 9 | 1.3 | ≥ 75 | – | – | –
CN(CCN1CCC(OC(=O)Nc2ccccc2-c2ccccc2)CC1)C(=O)c1ccc(CN2CCC(C(N)=O)CC2)cc1.O=P(O)(O)O.O=P(O)(O)O [Example 3, Crystalline Diphosphate Salt of Biphenyl-2-ylcarbamic Acid 1-(2-{[4-(4-Carbamoylpiperidin-1-ylmethyl)benzoyl]methylamino}ethyl)piperidin-4-yl Ester] | reversible sorption/desorption profile with low hygroscopicity | 3.3 | 0.6 | ≥ 150 | Less than 0.5% | greater than 40 mg/mL of freebase equivalent | no detectable change in chemical purity
CN(CCN1CCC(OC(=O)Nc2ccccc2-c2ccccc2)CC1)C(=O)c1ccc(CN2CCC(C(N)=O)CC2)cc1.O=C(O)C(=O)O.O=C(O)C(=O)O [Example 7, Crystalline Dioxalate Salt of Biphenyl-2-ylcarbamic Acid 1-(2-{[4-(4-Carbamoylpiperidin-1-ylmethyl)benzoyl]methylamino}ethyl)piperidin-4-yl Ester] | reversible sorption/desorption profile with low hygroscopicity | 5.3 | 1.1 | – | – | – | –
CN(CCN1CCC(OC(=O)Nc2ccccc2-c2ccccc2)CC1)C(=O)c1ccc(CN2CCC(C(N)=O)CC2)cc1 [Example 10, Crystalline Freebase Biphenyl-2-ylcarbamic Acid 1-(2-{[4-(4-Carbamoylpiperidin-1-ylmethyl)benzoyl]methylamino}ethyl)piperidin-4-yl Ester (Form I)] | reversible sorption/desorption profile with low hygroscopicity | 10 | 1.2 | ≥ 80 | – | – | –
